Data reported in patent publication US10988477B2 (Merck Patent GmbH, priority 2018, dated 2021).

Target: GCN2 kinase (Homo sapiens, UniProt Q9P2K8)
Experiment: GCN2 enzyme inhibition assay (Transcreener ADP2 fluorescence polarization)
Type: biochemical
Settings: Enzyme activity for compounds of Formula IV; Ki(app), 280 μM ATP, 25° C.
Procedure, shortened: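 Human GCN2 (4 nM) preincubated 10 min with compound (0–8 μM) and 200 μM (RS)7 peptide in Tris-HCl pH 7.5, NaCl, MgCl2, DTT. Reaction started with 280 μM ATP, run 1 h at 25 °C. ADP detected by Transcreener fluorescence polarization. IC50 and Ki(app) fitted by tight-binding algorithm.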

GCN2 kinase, sequence (Q9P2K8 whole entry): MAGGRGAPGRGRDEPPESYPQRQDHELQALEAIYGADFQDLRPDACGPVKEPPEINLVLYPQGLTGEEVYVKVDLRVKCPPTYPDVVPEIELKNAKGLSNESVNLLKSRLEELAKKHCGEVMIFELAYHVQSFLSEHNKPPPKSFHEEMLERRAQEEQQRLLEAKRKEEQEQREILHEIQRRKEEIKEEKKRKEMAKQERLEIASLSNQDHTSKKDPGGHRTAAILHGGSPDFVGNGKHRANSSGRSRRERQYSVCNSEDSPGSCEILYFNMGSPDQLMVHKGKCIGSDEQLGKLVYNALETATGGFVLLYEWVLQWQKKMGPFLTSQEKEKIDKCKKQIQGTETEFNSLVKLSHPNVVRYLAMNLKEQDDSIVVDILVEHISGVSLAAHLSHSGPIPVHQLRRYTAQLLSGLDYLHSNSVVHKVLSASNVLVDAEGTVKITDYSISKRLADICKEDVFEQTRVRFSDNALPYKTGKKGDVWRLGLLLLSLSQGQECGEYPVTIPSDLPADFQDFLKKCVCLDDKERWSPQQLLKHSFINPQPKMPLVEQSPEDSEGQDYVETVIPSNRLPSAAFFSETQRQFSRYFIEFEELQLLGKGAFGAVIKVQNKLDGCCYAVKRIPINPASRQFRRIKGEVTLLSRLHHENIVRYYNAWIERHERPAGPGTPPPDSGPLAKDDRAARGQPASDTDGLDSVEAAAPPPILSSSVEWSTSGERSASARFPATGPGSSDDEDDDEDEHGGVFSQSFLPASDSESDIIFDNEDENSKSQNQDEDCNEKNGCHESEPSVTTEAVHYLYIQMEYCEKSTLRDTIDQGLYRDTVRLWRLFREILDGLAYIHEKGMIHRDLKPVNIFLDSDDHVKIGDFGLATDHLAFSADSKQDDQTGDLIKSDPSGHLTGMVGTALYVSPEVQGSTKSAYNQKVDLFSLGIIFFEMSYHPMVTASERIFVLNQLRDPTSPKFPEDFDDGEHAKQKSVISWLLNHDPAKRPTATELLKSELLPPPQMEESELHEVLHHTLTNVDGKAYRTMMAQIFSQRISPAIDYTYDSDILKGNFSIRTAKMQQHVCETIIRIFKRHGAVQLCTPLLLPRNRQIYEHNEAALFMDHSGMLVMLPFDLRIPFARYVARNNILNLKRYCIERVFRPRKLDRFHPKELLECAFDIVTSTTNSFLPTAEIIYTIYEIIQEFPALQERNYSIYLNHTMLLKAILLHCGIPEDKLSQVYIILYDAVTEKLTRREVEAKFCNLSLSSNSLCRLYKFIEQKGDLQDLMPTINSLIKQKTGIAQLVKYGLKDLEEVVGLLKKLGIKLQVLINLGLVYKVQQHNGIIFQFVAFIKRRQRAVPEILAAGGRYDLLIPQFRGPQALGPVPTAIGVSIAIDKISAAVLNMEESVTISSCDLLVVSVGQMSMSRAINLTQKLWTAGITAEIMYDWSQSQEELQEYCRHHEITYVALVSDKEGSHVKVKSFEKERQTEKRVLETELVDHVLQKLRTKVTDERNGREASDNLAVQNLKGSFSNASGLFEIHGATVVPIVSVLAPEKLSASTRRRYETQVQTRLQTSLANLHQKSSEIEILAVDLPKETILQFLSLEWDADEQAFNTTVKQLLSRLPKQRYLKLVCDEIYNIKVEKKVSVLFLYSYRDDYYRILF

| Compound | Ki |
| --- | --- |
| CN1CC2(CCN(c3ccnc(-c4cnc5cnc(C(F)(F)F)cn45)n3)C2)OC1=O (stereo not drawn) [IV-579, 3-Methyl-7-(2-(6-(trifluoromethyl)imidazo[1,2-a]pyrazin-3-yl)pyrimidin-4-yl)-1-oxa-3,7-diazaspiro[4.4]nonan-2-one] | 100 to 1000 nM |
| COCC1CN(c2ccnc(-c3cnc4cnc(C(F)(F)F)cn34)n2)CC(C)O1 (stereo not drawn) [IV-586, 2-(Methoxymethyl)-6-methyl-4-(2-(6-(trifluoromethyl)imidazo[1,2-a]pyrazin-3-yl)pyrimidin-4-yl)morpholine] | 100 to 1000 nM |
| CSCC1CCN(c2ccnc(-c3cnc4cnc(C(F)(F)F)cn34)n2)C1 (stereo not drawn) [IV-594, 3-(4-(3-((Methylthio)methyl)pyrrolidin-1-yl)pyrimidin-2-yl)-6-(trifluoromethyl)imidazo[1,2-a]pyrazine] | 10 to 100 nM |
| NC(=O)C1CN(c2ccnc(-c3cnc4cnc(C(F)(F)F)cn34)n2)CCN1 (stereo not drawn) [IV-595, 4-(2-(6-(Trifluoromethyl)imidazo[1,2-a]pyrazin-3-yl)pyrimidin-4-yl)piperazine-2-carboxamide] | 100 to 1000 nM |
| NC(=O)C1CN(c2ccnc(-c3cnc4cnc(C(F)(F)F)cn34)n2)CCO1 (stereo not drawn) [IV-599, 4-(2-(6-(Trifluoromethyl)imidazo[1,2-a]pyrazin-3-yl)pyrimidin-4-yl)morpholine-2-carboxamide] | 100 to 1000 nM |
| FC(F)(F)c1cn2c(-c3nccc(N4CCCC(n5ccnn5)C4)n3)cnc2cn1 (stereo not drawn) [IV-600, 3-(4-(3-(1H-1,2,3-Triazol-1-yl)piperidin-1-yl)pyrimidin-2-yl)-6-(trifluoromethyl)imidazo[1,2-a]pyrazine] | 100 to 1000 nM |
| O=C1CN(C2CCN(c3ccnc(-c4cnc5cnc(C(F)(F)F)cn45)n3)C2)CCN1 (stereo not drawn) [IV-602, 4-(1-(2-(6-(Trifluoromethyl)imidazo[1,2-a]pyrazin-3-yl)pyrimidin-4-yl)pyrrolidin-3-yl)piperazin-2-one] | 100 to 1000 nM |
| CS(=O)(=O)CC1CCN(c2ccnc(-c3cnc4cnc(C(F)(F)F)cn34)n2)C1 (stereo not drawn) [IV-604, 3-(4-(3-((methylsulfonyl)methyl)pyrrolidin-1-yl)pyrimidin-2-yl)-6-(trifluoromethyl)imidazo[1,2-a]pyrazine] | 100 to 1000 nM |
| NC(=O)CC1CCN(c2ccnc(-c3cnc4cnc(C(F)(F)F)cn34)n2)CC1 [IV-605, 2-(1-(2-(6-(Trifluoromethyl)imidazo[1,2-a]pyrazin-3-yl)pyrimidin-4-yl)piperidin-4-yl)acetamide] | 100 to 1000 nM |
| CS(=N)(=O)CC1CCN(c2ccnc(-c3cnc4cnc(C(F)(F)F)cn34)n2)C1 (stereo not drawn) [IV-607, Imino(methyl)((1-(2-(6-(trifluoromethyl)imidazo[1,2-a]pyrazin-3-yl)pyrimidin-4-yl)pyrrolidin-3-yl)methyl)-λ^6-sulfanone] | 100 to 1000 nM |
| NC(=O)C1CCN(c2ccnc(-c3cnc4cnc(C(F)(F)F)cn34)n2)CC1 [IV-611, 1-(2-(6-(Trifluoromethyl)imidazo[1,2-a]pyrazin-3-yl)pyrimidin-4-yl)piperidine-4-carboxamide] | 100 to 1000 nM |
| NC(=O)N1CCN(c2ccnc(-c3cnc4cnc(C(F)(F)F)cn34)n2)CC1 [IV-612, 4-(2-(6-(Trifluoromethyl)imidazo[1,2-a]pyrazin-3-yl)pyrimidin-4-yl)piperazine-1-carboxamide] | 100 to 1000 nM |
| CC1COC(CO)CN1c1ccnc(-c2cnc3cnc(C(F)(F)F)cn23)n1 (stereo not drawn) [IV-613, (5-Methyl-4-(2-(6-(trifluoromethyl)imidazo[1,2-a]pyrazin-3-yl)pyrimidin-4-yl)morpholin-2-yl)methanol] | 100 to 1000 nM |
| OCCCC1CCN(c2ccnc(-c3cnc4cnc(C(F)(F)F)cn34)n2)C1 (stereo not drawn) [IV-616, 3-(1-(2-(6-(Trifluoromethyl)imidazo[1,2-a]pyrazin-3-yl)pyrimidin-4-yl)pyrrolidin-3-yl)propan-1-ol] | 10 to 100 nM |

Continued, values first:

| Ki | Compound |
| --- | --- |
| 100 to 1000 nM | CC1(C(N)=O)CCN(c2ccnc(-c3cnc4cnc(C(F)(F)F)cn34)n2)C1 (stereo not drawn) [IV-581, 3-Methyl-1-(2-(6-(trifluoromethyl)imidazo[1,2-a]pyrazin-3-yl)pyrimidin-4-yl)pyrrolidine-3-carboxamide] |
| 100 to 1000 nM | O=C1NCCN1C1CCCN(c2ccnc(-c3cnc4cnc(C(F)(F)F)cn34)n2)C1 (stereo not drawn) [IV-584, 1-(1-(2-(6-(Trifluoromethyl)imidazo[1,2-a]pyrazin-3-yl)pyrimidin-4-yl)piperidin-3-yl)imidazolidin-2-one] |
| 100 to 1000 nM | CN1CCN(c2ccnc(-c3cnc4cnc(C(F)(F)F)cn34)n2)CC1 [IV-585, 3-(4-(4-Methylpiperazin-1-yl)pyrimidin-2-yl)-6-(trifluoromethyl)imidazo[1,2-a]pyrazine] |
| 100 to 1000 nM | COCC1CN(c2ccnc(-c3cnc4cnc(C(F)(F)F)cn34)n2)CC(C)O1 (stereo not drawn) [IV-587, 2-(Methoxymethyl)-6-methyl-4-(2-(6-(trifluoromethyl)imidazo[1,2-a]pyrazin-3-yl)pyrimidin-4-yl)morpholine] |
| 100 to 1000 nM | COCC1CN(c2ccnc(-c3cnc4cnc(C(F)(F)F)cn34)n2)CCO1 (stereo not drawn) [IV-588, 2-(Methoxymethyl)-4-(2-(6-(trifluoromethyl)imidazo[1,2-a]pyrazin-3-yl)pyrimidin-4-yl)morpholine] |
| 100 to 1000 nM | CN1CCN(c2ccnc(-c3cnc4cnc(C(F)(F)F)cn34)n2)CC1C(N)=O (stereo not drawn) [IV-596, 1-Methyl-4-(2-(6-(trifluoromethyl)imidazo[1,2-a]pyrazin-3-yl)pyrimidin-4-yl)piperazine-2-carboxamide] |
| 100 to 1000 nM | NC(=O)C1CCN(c2ccnc(-c3cnc4cnc(C(F)(F)F)cn34)n2)C1 (stereo not drawn) [IV-598, 1-(2-(6-(Trifluoromethyl)imidazo[1,2-a]pyrazin-3-yl)pyrimidin-4-yl)pyrrolidine-3-carboxamide] |
| 100 to 1000 nM | C[S+]([O-])CC1CCN(c2ccnc(-c3cnc4cnc(C(F)(F)F)cn34)n2)C1 (stereo not drawn) [IV-603, 3-(4-(3-((Methylsulfinyl)methyl)pyrrolidin-1-yl)pyrimidin-2-yl)-6-(trifluoromethyl)imidazo[1,2-a]pyrazine] |
| 100 to 1000 nM | FC(F)(F)c1cn2c(-c3nccc(N4CCC(Nc5cn[nH]c5)C4)n3)cnc2cn1 (stereo not drawn) [IV-606, N-(1-(2-(6-(Trifluoromethyl)imidazo[1,2-a]pyrazin-3-yl)pyrimidin-4-yl)pyrrolidin-3-yl)-1H-pyrazol-4-amine] |
| 100 to 1000 nM | CC1CN(c2ccnc(-c3cnc4cnc(C(F)(F)F)cn34)n2)C(C)(C)C1 (stereo not drawn) [IV-610, 6-(Trifluoromethyl)-3-(4-(2,2,4-trimethylpyrrolidin-1-yl)pyrimidin-2-yl)imidazo[1,2-a]pyrazine] |
| 100 to 1000 nM | OCCN1CCN(c2ccnc(-c3cnc4cnc(C(F)(F)F)cn34)n2)CC1 [IV-617, 2-(4-(2-(6-(Trifluoromethyl)imidazo[1,2-a]pyrazin-3-yl)pyrimidin-4-yl)piperazin-1-yl)ethan-1-ol] |
| 100 to 1000 nM | O=C(CO)N1CCN(c2ccnc(-c3cnc4cnc(C(F)(F)F)cn34)n2)CC1 [IV-618, 2-Hydroxy-1-(4-(2-(6-(trifluoromethyl)imidazo[1,2-a]pyrazin-3-yl)pyrimidin-4-yl)piperazin-1-yl)ethan-1-one] |
| 100 to 1000 nM | CC(C)(O)CN1CCN(c2ccnc(-c3cnc4cnc(C(F)(F)F)cn34)n2)CC1 [IV-619, 2-Methyl-1-(4-(2-(6-(trifluoromethyl)imidazo[1,2-a]pyrazin-3-yl)pyrimidin-4-yl)piperazin-1-yl)propan-2-ol] |
